Source: patent US12122780B2, “Pyrimidinyl group-containing tricyclic compound serving as c-Met inhibitor” (JIANGSU AOSAIKANG PHARMACEUTICAL CO., LTD., priority 2019, dated 2024)
Counter-ions that a name gives are not always drawn.

Tests used:
[1] = test system: human gastric cancer Hs746T xenograft tumor; assay: In vivo drug efficacy, human gastric cancer Hs746T xenograft tumor in nude mice; design: species or system BALB/c nude mice; conditions: for TGI (tumor growth inhibition rate) / TRTV/CRTV (relative tumor proliferation rate T/C): after 20 days; for Tumor volume: n = 6
Protocol: BALB/c nude mice, female, 6-8 weeks old, weighing about 18-22 grams, animals were raised in SPF-class animal rooms in IVC (independent air supply system, constant temperature and humidity) cages (3 per cage). All cages, bedding and water were disinfected before use. All animals had free access to standard certified commercial laboratory diets. 0.2 mL (5×10^6 cells) of Hs746T cell suspension (with matrix gel, volume ratio 1:1) was subcutaneously inoculated on the right back of each mouse, and a total of 55 mice were inoculated. When the average tumor volume reached 160 mm^3, a random stratified grouping method was adopted according to the tumor volume and animal body weight to start grouping administration. The test compound was orally administered daily, the two doses of hydrochloride of compound 25 were 3 mg/kg and 6 mg/kg, respectively, and the dose of hydrochloride of compound 39 was 3 mg/kg. The tumor diameter was measured with vernier calipers twice a week. The calculation formula of tumor volume was: V=0.5a×b^2, a and b represented the long diameter and short diameter of the tumor, respectively. The anti-tumor efficacy of the compound was evaluated by TGI (%) or the relative tumor proliferation rate T/C (%). Relative tumor proliferation rate T/C (%)=TRTV/CRTV×100% (TRTV: average RTV in the treatment group; CRTV: average RTV in the negative control group). The relative tumor volume (RTV) was calculated according to the results of tumor measurement, the calculation formula was RTV=Vt/V0, wherein V0 was the tumor volume measured at the time of the grouping administration (i.e. D0), Vt was the tumor volume of the mice at a certain measurement, and TRTV and CRTV were taken on the same day. TGI (%) reflected the tumor growth inhibition rate. TGI (%)=[(1−(average tumor volume of a certain treatment group after administration-average tumor volume of the treatment group at the beginning of administration))/(average tumor volume of the solvent control group after the administration-average tumor volume of the solvent control group at the beginning of the administration)]×100%. Statistical analysis was performed based on the tumor volume (RTV) on the 20th day, and SPSS software was used for analysis.

EBC-1 cells = assay: EBC-1 cell proliferation experiment (CellTiter-Glo); type: cell-based, human; conditions: Homo sapiens, EBC-1, 72 h, 3 days
Protocol: MEM medium, fetal bovine serum, penicillin/streptomycin antibiotics were purchased from Wisent. EBC-1 cell line was purchased from Nanjing COBIO Bioscience Co., LTD. Envision multi-label analyzer (PerkinElmer).
EBC-1 cells were seeded in a white 96-well plate, […] cell suspension per well, which contained 3000 EBC-1 cells. The cell plate was placed in a carbon dioxide incubator for overnight culture.
The compound to be tested was diluted 5-fold to the eighth concentration with a discharge gun, i.e., from 2 mM to […], and double duplicate wells experiment was set. 78 μL of the medium was added to the middle plate, then 2 μL per well of gradient diluted compound was transferred to the corresponding position on the middle plate, then mixed well and 20 μL per well was transferred to the cell plate. The cell plate was cultured in a carbon dioxide incubator for 3 days. Another cell plate was prepared and the signal values were read on the day of dosing as […] to be used in the data analysis. 25 μL of Promega CellTiter-Glo was added to each well of this cell plate, and incubated at room temperature for 10 minutes to stabilize the luminescence signal. Readings were taken using a PerkinElmer Envision multi-label analyzer.
25 μL of Promega CellTiter-Glo reagent was added to each well of this cell plate, and incubated at room temperature for 10 minutes to stabilize the luminescence signal. Readings were taken using a PerkinElmer Envision multi-label analyzer.
Using the equation (Sample-Min)/(Max-Min)*100% to convert the original data to the inhibition rate, the IC50 value can be obtained by curve fitting with four parameters (obtained by “log(inhibitor) vs. response in GraphPad Prism—Variable slope mode).

[2] = Pharmacokinetics of single intravenous and oral administration in dogs; type: in vivo; conditions: for Vd / clearance / half-life / bioavailability: dog, plasma; for Vd / clearance / half-life / Exposure AUC: intravenous injection, 1 mg/kg; for Vd: read-out: Apparent volume of distribution; for clearance: read-out: Clearance rate; for half-life: read-out: Half-life (T1/2) (converted); for bioavailability / Exposure AUC0-last / Maximum blood concentration / Peak time: oral administration, 5 mg/kg
Protocol: The objective of this experiment was to study the pharmacokinetics (PK) of the test compound in different species after a single intravenous and a single oral administration.
After intravenous injection or oral administration, animal blood samples were collected and the actual blood collection time was recorded. Immediately after collection, blood samples were transferred to labeled centrifuge tubes containing K2-EDTA and subsequently centrifuged and processed to obtain plasma. Plasma was transferred to pre-cooled centrifuge tubes, snap-frozen in dry ice and stored in an ultra-low temperature refrigerator at −70±10° C. until LC-MS was performed.
Plasma drug concentration data of the compounds were processed using pharmacokinetic software with a non-compartmental model. The peak concentration (Cmax) and time to peak (Tmax), as well as the quantifiable end time, were obtained directly from the blood concentration-time diagram. The log-linear trapezoidal method was used to calculate the following pharmacokinetic parameters: half-life (T1/2), apparent volume of distribution (Vdss) and clearance rate (Cl), and the area under the time-plasma concentration curve from 0 points to the end time (AUC0-last), the initial concentration (C0).

[3] = 3 mg/kg oral daily, day 0, mean ± standard error
[4] = 3 mg/kg oral daily, day 2, mean ± standard error
[5] = 3 mg/kg oral daily, day 5, mean ± standard error
[6] = 3 mg/kg oral daily, day 9, mean ± standard error
[7] = 3 mg/kg oral daily, day 12, mean ± standard error
[8] = 3 mg/kg oral daily, day 16, mean ± standard error
[9] = 3 mg/kg oral daily, day 19, mean ± standard error
[10] = 3 mg/kg oral daily, day 20, mean ± standard error

SMILES	TGI (tumor growth inhibition rate) ([1]; 3 mg/kg oral daily)	TRTV/CRTV (relative tumor proliferation rate T/C) ([1]; 3 mg/kg oral daily)	Tumor volume [1, 3]	Tumor volume [1, 4]	Tumor volume [1, 5]	Tumor volume [1, 6]	Tumor volume [1, 7]	Tumor volume [1, 8]	Tumor volume [1, 9]	Tumor volume [1, 10]	IC50 (EBC-1 cells)	Vd [2]	clearance [2]	half-life [2]	bioavailability [2]	Exposure AUC [2]	Exposure AUC0-last [2]	Maximum blood concentration [2]	Peak time [2]	further results
CC(C)(O)CN1CCC(COc2cnc(-c3cccc(Cn4c(=O)ccn5c6cc(C#N)ccc6nc45)c3)nc2)CC1 [Hydrochloride of compound 39]	106.7%	0.7%	160 ± 6 mm^3	159 ± 8 mm^3	125 ± 4 mm^3	92 ± 3 mm^3	82 ± 5 mm^3	59 ± 7 mm^3	26 ± 4 mm^3	16 ± 3 mm^3	4.81 nM	14.6 L/kg	18.7 mL/min/kg	9.47 h	70.6%	1.34 µM·h	4.74 µM·h	451 nM	5 h	Tumor volume ([1]; 3 mg/kg oral daily, day 20, mean ± standard error, listed as hydrochloride of compound 39): 16 mm^3
CC(C)N1CCC(COc2cnc(-c3cccc(Cn4c(=O)ccn5c6cc(C#N)ccc6nc45)c3)nc2)CC1 [Hydrochloride of compound 25]	96.6%	10.2%	160 ± 7 mm^3	179 ± 8 mm^3	173 ± 12 mm^3	151 ± 7 mm^3	144 ± 6 mm^3	139 ± 20 mm^3	221 ± 49 mm^3	234 ± 79 mm^3	1.87 nM	14.4 L/kg	24.2 mL/min/kg	7.87 h	57.7%	1.23 µM·h	3.54 µM·h	246 nM	4 h	Tumor volume ([1]; 3 mg/kg oral daily, day 20, mean ± standard error, listed as hydrochloride of compound 25): 234 mm^3; TGI (tumor growth inhibition rate) ([1]; 6 mg/kg oral daily): 106.7%; TRTV/CRTV (relative tumor proliferation rate T/C) ([1]; 6 mg/kg oral daily): 0.7%; Tumor volume ([1]; 6 mg/kg oral daily, day 0, mean ± standard error): 160 ± 7 mm^3; Tumor volume ([1]; 6 mg/kg oral daily, day 2, mean ± standard error): 146 ± 6 mm^3; Tumor volume ([1]; 6 mg/kg oral daily, day 5, mean ± standard error): 118 ± 6 mm^3; Tumor volume ([1]; 6 mg/kg oral daily, day 9, mean ± standard error): 89 ± 9 mm^3; Tumor volume ([1]; 6 mg/kg oral daily, day 12, mean ± standard error): 83 ± 9 mm^3; Tumor volume ([1]; 6 mg/kg oral daily, day 16, mean ± standard error): 55 ± 6 mm^3; Tumor volume ([1]; 6 mg/kg oral daily, day 19, mean ± standard error): 30 ± 4 mm^3; Tumor volume ([1]; 6 mg/kg oral daily, day 20, mean ± standard error): 17 ± 4 mm^3; Tumor volume ([1]; 6 mg/kg oral daily, day 20, mean ± standard error, listed as hydrochloride of compound 25): 17 mm^3
